“Also recorded” adds a separate entry of the source.
Experiments:
LC3B-II in PBMCs = assay: Autophagic flux in PBMCs by lysosomal inhibition in whole blood, LC3B western blot; assay type: cell-based, human
Method: Blood was collected in lithium heparin (Greiner Bio-One, vacuette tube 9 ml lithium heparin, 455084), or EDTA (Greiner Bio-One, vacuette tube 9 ml K3EDTA, 455036) blood collection tubes (6-9 ml). Unless otherwise stated, blood samples were split into two (2×3 ml) and pipetted into 10 ml conical centrifuge tubes. One of the blood samples was treated with a final concentration of 150 μM of chloroquine (CQ, chloroquine diphosphate, Sigma Aldrich, C6628) (9 μl of 50 mM for a final volume of 3 ml of blood). Blood was mixed gently by inverting both tubes 3-4 times. Both tubes (+CQ and −CQ) were incubated at 37° C. for 1 hour with rotation (10 revolutions per minute, Thermo Scientific Tube Revolver, 88881002).
After blood was incubated for 1 hour at 37° C., blood tubes were kept on ice to stop enzyme activity and vesicular trafficking. PBMCs were then isolated using standard procedures. To each tube, 3 ml of cold DPBS (Dulbecco's Phosphate-Buffered Saline, GIBCO) was added to 3 ml of blood (1:1) and samples were mixed by gently inverting tubes 3-4 times. Four ml of Lymphoprep (Stemcell Technologies, 07811) was carefully underlayed beneath the blood/DPBS mixture using a 10 mL syringe and a canula (sterile). This was repeated for both blood tubes (containing blood incubated without and with CQ). Tubes containing blood/DPBS underlayed with lymphoprep were centrifuged for 30 min at 800 g, with brake off at 4° C.
PBMCs were carefully aspirated with a 1 mL pipette and dispensed into a 10 mL conical centrifuge tube (approximately 2 ml volume containing PBMCs). PBMCs were then diluted with cold DPBS to a final volume of 5 ml. PBMCs and DPBS were mixed gently by inverting tubes 3-4 times. PBMCs were then pelleted by centrifugation at 600 g for 10 min at 4° C. (with brake). The supernatant was discarded.
PBMCs were resuspended with 1 ml of red blood cell lysis buffer (1×, BD Biosciences, 555899) and were mixed by gently pipetting. PBMCs were left on ice for 2 minutes, after which they were pelleted by centrifugation at 600 g for 5 min at 4° C. The supernatant was discarded and PBMCs were washed by resuspension in 5 ml of cold DPBS. PBMCs were pelleted again by centrifugation at 600 g for 5 min at 4° C. The supernatant was discarded and the cells were again resuspended in 1 ml of cold DPBS and this suspension was transferred to a 1.5 ml microcentrifuge tube. This tube was centrifuged at 2,000 g for 10 min at 4° C. The supernatant was discarded and the pellet containing PBMCs was frozen on dry ice and stored at −80° C. until biochemical analyses.
PBMC pellets were resuspended in a lysis buffer containing protease and phosphatase inhibitors (10 mM Tris pH 7.0, 1 mM EDTA, 0.5 mM EGTA, 1% Triton X-100, 0.1% sodium deoxycholate, 0.1% SDS, 140 mM NaCl, 2.5 mM sodium pyrophosphate, 1 mM sodium orthovanadate, 1 mM β-glycerophosphate (pH 7.4) protease inhibitor cocktail Roche (1×). Cell suspensions were then sonicated on ice 2×20 sec. Cell lysates were centrifuged at 2,000 g for 10 min at 4° C. and the supernatant collected.
Total protein was measured using a micro BCA protein assay kit [Thermo Fisher Scientific 23235]. Western blot analysis was performed using 10 μg of total protein of each of the homogenates that were electrophoresed at 130 V for 1 hour through 4-12% Bis-Tris Plus SDS-PAGE gels (Bolt™, Invitrogen, Thermofisher Scientific). The gels were transferred to a methanol-activated PVDF membrane at 35 V for 70 min. […]

LC3A in PBMCs = assay: Whole blood incubation, LC3A western blot in PBMCs; assay type: cell-based, human; conditions: chloroquine 0-200 μM in whole blood, 1 h at 37° C., four subjects
Method: (§1) Blood was mixed gently by inverting both tubes 3-4 times.
(§2) (with brake). The supernatant was discarded.
(§3) This tube was centrifuged at 2,000 g for 10 min at 4° C.
(§4) The gels were transferred to a methanol-activated PVDF membrane at 35 V for 70 min.
(§5) The membranes were incubated overnight at 4° C. with primary antibodies diluted in block solution on a tube roller.

P62 in PBMCs = assay: Whole blood incubation, P62 western blot in PBMCs; assay type: cell-based, human; conditions: chloroquine 0-200 μM in whole blood, 1 h at 37° C., four subjects
Method: as §1, §2, §3, §4, §5

[1] = system: LC3B-II in PBMCs and PMNs; conditions: 150 μM chloroquine, one-hour, isolated PBMCs and PMNs in RPMI, N=3
Method: (§6) The supernatant was discarded.
as §6, §3, §4

SQSTM1/P62 in PBMCs = assay: Primary culture of PBMCs with or without chloroquine, SQSTM1/P62 western blot; assay type: cell-based, human; conditions: 150 μM chloroquine, one-hour, isolated PBMCs in RPMI, N=3
Method: as §6
Images were analyzed using ImageJ software.
These populations were verified by flow cytometry (FIG. 5B).

CO/C1=C\C(C)=C\[C@@H](C)[C@@H](O)[C@@H](C)C/C(C)=C/C=C/[C@H](OC)[C@@H]([C@@H](C)[C@@H](O)[C@H](C)[C@@]2(O)C[C@@H](O)[C@H](C)[C@@H](C(C)C)O2)OC1=O [Bafilomycin, bafilomycin A1]
LC3BII cargo in PBMCs (LC3B-II in PBMCs; whole blood from four individuals, one hour at 37° C., ethanol vehicle): increased LC3BII cargo

O=C([O-])CN(CCN(CC(=O)[O-])CC(=O)O)CC(=O)[O-].[K+].[K+].[K+] [EDTA]
LC3B-II signal in no-chloroquine samples (basal state) (LC3B-II in PBMCs; EDTA tubes compared with lithium-heparin tubes, three subjects): lower

CCN(CC)CCCC(C)Nc1ccnc2cc(Cl)ccc12 (stereo not drawn) [chloroquine]
LC3A response to chloroquine treatment (LC3A in PBMCs): not clearly responding | P62 protein abundance (P62 in PBMCs): increased protein abundance with chloroquine treatment was observed in three out of four subjects | LC3BII accumulation over time (LC3B-II in PBMCs; 150 μM chloroquine in whole blood, 0-120 minutes of incubation): near-linear increase in LC3BII accumulation | LC3B-II response to chloroquine titration (ΔLC3BII, measure of autophagic flux) (LC3B-II in PBMCs; chloroquine 0-200 μM in whole blood, 1 h at 37° C., four subjects): robust directly proportional increase in response to increasing chloroquine concentration in whole blood up until 150 μM; also recorded: robust, directly proportional increase in response to increasing chloroquine concentration in whole blood up to 150 μM, after which a ceiling effect was observed | LC3B-II level (LC3B-II degradation inhibited) [1]: increase in LC3B-II | P62 level after chloroquine treatment (SQSTM1/P62 in PBMCs): did not change

lithium heparin [lithium-heparin]
autophagic flux (ΔLC3B-II) by anti-coagulant of the collection tube (LC3B-II in PBMCs; lithium-heparin compared with EDTA tubes, 150 μM chloroquine one-hour at 37° C., three subjects): greater

— US20220276262A1, “Methods and Products for Assessing Lysosomal System Flux” (SOUTH AUSTRALIAN HEALTH AND MEDICAL RESEARCH INSTITUTE …, priority 2019, published 2022)
